Test system: Fov hyphae
Assay: Uptake of NaD1 into hyphae (immunogold EM, bimane fluorescence, immunoblot)
Assay type: cell-based, Fusarium oxysporum f. sp. vasinfectum
Protocol: Fov hyphae were grown as described above prior to the addition of NaD1 (10 μM final concentration) to 1 mL of the culture. Samples (100 μL) were collected after 0, 5, 10, 30, 60, 90 and 120 min. Hyphae were collected by centrifugation (10 min, 10,000×g) and the supernatant was stored at −20° C. for analysis. Hyphae were washed (2×10 min) with KCl (0.6 M) to remove any ionically bound protein before they were resuspended in 50 mM CAPS buffer (pH 10.0) containing 10 mM DTT for 20 min. Hyphae were collected by centrifugation and the supernatant, containing cell wall proteins, was collected for analysis. The pellet (containing cells) was resuspended in water and the cells were lysed using glass beads (Sigma, 60 mg) and vortexing (3×10 min). Cellular debris was removed by centrifugation (16,000×g, 10 min) and the supernatant collected for analysis. All samples were then analyzed by SDS-PAGE and immunoblotting.
Fov hyphae were grown for 18 h in half-strength PDB (5 mL) with vigorous shaking at 25° C. from a starting spore suspension of 5×10^4/mL. Hyphae were then treated with 2 μM NaD1 or an equivalent volume of water for 2 h at RT with gentle agitation, and were washed twice in 0.6 M KCl and three times in PBS before fixation in 4% (w/v) paraformaldehyde in PBS for 1 h at 4° C. Hyphae were again washed three times in PBS before dehydration in a standard ethanol series (15 min each, 50%, 70% and 90% ethanol, 3×15 min 100% ethanol). Hyphae were then infiltrated with LR White resin (ProSciTech) for 1 h at RT, followed by 18 h at 4° C., 1 h at RT and 24 h at 60° C. Fresh LR White resin was used at each step. Ultrathin sections were cut and placed on Formvar coated gold grids.
Grids were blocked with PBS containing 8% (w/v) BSA and 1% (v/v) Triton X-100 for 1 h and labeled with α-NaD1 antibodies (2 μg/mL in blocking buffer) for 1 h. Grids were washed in blocking buffer (3×10 min) and labeled with 15 nm gold particle labeled goat α-rabbit IgG antibodies (ProSciTech diluted 1 in 20 for 1 h. Grids were washed again in blocking solution (3×10 min) followed by water (15 min) before being air-dried. A JEOL JEM2010HC x e80 KV transmission electron microscope was used to examine labeled grids. Pictures were taken on Kodak EM film (ProSciTech) and developed in a dark room before scanning on a Hewlett Packard Scanjet 5P scanner.
Hyphae grown for 18 h as described were treated with NaD1-bimane (2 μM) for between 10 min and 6 h. Hyphae were then visualized by fluorescence microscopy using an MWU filter (excitation wavelength of 330-385 nm).

“NaD1: plant defensin isolated from floral tissue of Nicotiana alata (SEQ ID NO:12) (RECKTESNTFPGICITKPPCRKACISEKFTDGHCSKILRRCLCTKPC; Nicotiana alata (NaD1))” was tested, and the “NaD1 in cytoplasm of treated hyphae, immunogold α-NaD1 labeling” value (NaD1 10 μM, 2 h, many, but not all, hyphae) was “heavily labeled”, the “time after which NaD1 uptake occurred” value (SDS-PAGE and immunoblotting of cytoplasmic contents) was 20 min and the “time until which NaD1 in the Fov cytoplasm increased” value (immunoblotting, decreased slightly afterwards) was 60 min.
